Results as given in patent US20210290597A1, “METHOD OF TREATING A CONDITION ASSOCIATED WITH NEURODEGENERATION USING INHIBITORS OF OAT3” (Neuropore Therapies, Inc., priority 2018, published 2021).

Tests used:
[1] = system: Translocator Protein (18 kDa) (TSPO); test: TSPO immunofluorescence in cortex, L61 ASYN transgenic mice, 3 month study; assay type: in vivo; conditions: 5 and 10 mg/kg i.p. daily, 3 months
Procedure: Briefly, Compound 1 was injected into L61 ASYN transgenic mice and non-transgenic control mice (i.p., once daily) at doses of 5 and 10 mg/kg for 3 months (79 total mice, n=14-17 mice per treatment group). The vehicle control consisted of a solution containing 5% DMSO+20% Cremphor EL+0.9% normal saline. The baseline grip strength of mice was evaluated prior to starting treatments for the 3 month study, and then re-evaluated following 70 days of treatment with vehicle or Compound 1 (5 or 10 mg/kg, i.p. injection daily).
Neuroinflammation is associated with increased expression of the 18-kDa translocator protein (TSPO), which is a marker for inflammation and is present on the mitochondria of activated microglia, astroglia and macrophages (Crawshaw and Robertson 2017). The effects of Compound 1 on the levels of Translocator Protein (18 kDa) (TSPO) were assessed in both L61 ASYN transgenic and non-transgenic mice in the aforementioned 3 month administration study. At the end of the study, the mice were sacrificed, and immunofluoresence (IF) detection of TSPO were assessed in the harvested brain tissues.
The harvested brain tissues were fixed (drop fixed in 4% paraformaldehyde), sectioned using a vibratome, and representative sections were assessed for TSPO with standard immunofluorescence (IF) staining. […]

human transporter BCRP = target: T1, human transporter BCRP (Homo sapiens, UniProt Q9UNQ0); test: In vitro ion transport assay 1, BCRP; assay type: cell-based; conditions: probe substrate 2 μM [3H]-prazosin
T1 construct: expressed in transfected cells; host or cells: MDCK-II
T1 sequence (Q9UNQ0 1-655): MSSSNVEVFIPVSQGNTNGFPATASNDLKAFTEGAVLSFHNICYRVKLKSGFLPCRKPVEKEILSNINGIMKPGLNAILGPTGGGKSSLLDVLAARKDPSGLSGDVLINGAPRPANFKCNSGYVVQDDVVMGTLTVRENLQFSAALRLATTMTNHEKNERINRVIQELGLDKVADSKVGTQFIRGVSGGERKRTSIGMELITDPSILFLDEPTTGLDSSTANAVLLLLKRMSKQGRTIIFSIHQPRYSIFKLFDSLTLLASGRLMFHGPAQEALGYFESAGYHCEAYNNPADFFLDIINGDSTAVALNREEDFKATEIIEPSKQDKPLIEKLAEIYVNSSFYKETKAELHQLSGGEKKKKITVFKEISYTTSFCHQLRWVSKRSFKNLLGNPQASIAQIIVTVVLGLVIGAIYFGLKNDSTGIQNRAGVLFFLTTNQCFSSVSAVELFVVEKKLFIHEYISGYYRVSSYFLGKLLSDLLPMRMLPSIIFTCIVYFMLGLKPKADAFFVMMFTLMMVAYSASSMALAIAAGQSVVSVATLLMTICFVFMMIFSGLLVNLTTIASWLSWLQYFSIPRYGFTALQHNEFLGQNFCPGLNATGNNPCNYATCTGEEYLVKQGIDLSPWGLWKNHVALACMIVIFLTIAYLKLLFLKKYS
Procedure: Compound 1 was studied in the concentration range of 0.1-100 μM for its potency against transport mediated by various transporter proteins. [table]

monomeric ASYN = test: Monomeric ASYN in brain homogenates, L61 ASYN transgenic mice (ProteinSimple western); assay type: in vivo; conditions: 1, 5 or 10 mg/kg per day i.p., 1 month
Procedure: Multiple in vivo administration studies of Compound 1 were carried out in the Line 61 (L61) mThy1-alpha-synuclein transgenic mouse model of Parkinson's disease (PD). The mThy1-alpha-synuclein transgenic mouse model overexpresses wild-type human ASYN under the Thy-1 promoter (commonly referred to as Line 61 transgenic mice; Rockenstein et al., 2002). […]
Alpha-synuclein (ASYN) is a neuronal protein whose dysregulation has been implicated in the pathogenesis of PD. The effects of Compound 1 on alpha-synuclein aggregation were assessed in both L61 ASYN transgenic and non-transgenic mice in a 1 month administration study. […] At the end of one month, the mice were sacrificed, and immunohistochemical (IHC) detection of total alpha-synuclein deposits, insoluble alpha-synuclein deposits (PK+resistant), microtubule-associated protein 1A/1B-light chain 3 (LC3), and monomeric alpha-synuclein levels were assessed in the harvested brain tissues.
Biochemical evaluations were conducted using a ProteinSimple© western biochemical evaluation. Briefly, samples were mixed with pre-calculated volumes of 0.1× Sample Buffer and 5× Fluorescent Master Mix to make a final sample concentration of 0.4 mg/mL in 10 μL solution for signal optimization and evaporation reduction. […]

Structure (SMILES): O=S(=O)(c1ccc(-n2cn[nH]c2=S)cc1)c1ccc(Cl)c(C(F)(F)F)c1 [Compound 1, 4-(4-((4-chloro-3-(trifluoromethyl)phenyl)sulfonyl)phenyl)-2,4-dihydro-3H-1,2,4-triazole-3-thione]
- levels of TSPO in cortex vs vehicle control [1]: significantly decreased
- IC50 (human transporter BCRP): 51.5 µM
- cortical and hippocampal levels of monomeric ASYN in cytosolic fraction of brain homogenates (monomeric ASYN): reduced
